{"source": "ChEMBL document CHEMBL3044779", "about": "“The action of herbicides on fatty acid biosynthesis and elongation in barley and cucumber” (Pest Manag Sci, 2010)", "key": {"[1]": {"tested_on": "Cucumis sativus", "assay": "Inhibition of fatty acid synthesis in Cucumis sativus (cucumber) using [14C]acetate assessed as reduction in [14C]-labeled 24C fatty acid level at 100 uM after 3 hr by liquid scintillation counting relative to control", "format": "functional, organism-based"}, "[2]": {"tested_on": "Hordeum vulgare", "assay": "Inhibition of fatty acid synthesis in Hordeum vulgare (barley) using [14C]malonate assessed as [14C]-labeled 24C fatty acid level at 100 uM after 3 hr by liquid scintillation counting (reference value: 20 +/- 1.2%)", "format": "functional", "design": "scale not given: the % may be the effect or the level left"}, "[3]": {"tested_on": "Hordeum vulgare", "assay": "Inhibition of fatty acid synthesis in Hordeum vulgare (barley) using [14C]acetate assessed as [14C]-labeled 24C fatty acid level at 100 uM after 3 hr by liquid scintillation counting (reference value: 5 +/- 0.8%)", "format": "functional", "design": "scale not given: the % may be the effect or the level left"}, "[4]": {"tested_on": "Cucumis sativus", "assay": "Inhibition of fatty acid synthesis in Cucumis sativus (cucumber) using [14C]malonate assessed as [14C]-labeled 22C fatty acid level at 100 uM after 3 hr by liquid scintillation counting (reference value: 48.5 +/- 6.4%)", "format": "functional", "design": "scale not given: the % may be the effect or the level left"}, "[5]": {"tested_on": "Cucumis sativus", "assay": "Inhibition of fatty acid synthesis in Cucumis sativus (cucumber) using [14C]acetate assessed as [14C]-labeled 22C fatty acid level at 100 uM after 3 hr by liquid scintillation counting (reference value: 25.5 +/- 2%)", "format": "functional", "design": "scale not given: the % may be the effect or the level left"}, "[6]": {"tested_on": "Hordeum vulgare", "assay": "Inhibition of fatty acid synthesis in Hordeum vulgare (barley) using [14C]malonate assessed as [14C]-labeled 26C fatty acid level at 100 uM after 3 hr by liquid scintillation counting (reference value: 8.3 +/- 0.4%)", "format": "functional", "design": "scale not given: the % may be the effect or the level left"}, "[7]": {"tested_on": "Cucumis sativus", "assay": "Inhibition of fatty acid synthesis in Cucumis sativus (cucumber) using [14C]malonate assessed as [14C]-labeled 24C fatty acid level at 100 uM after 3 hr by liquid scintillation counting (reference value: 9 +/- 2.5%)", "format": "functional", "design": "scale not given: the % may be the effect or the level left"}, "[8]": {"tested_on": "Hordeum vulgare", "assay": "Inhibition of fatty acid synthesis in Hordeum vulgare (barley) using [14C]malonate assessed as [14C]-labeled 22C fatty acid level at 100 uM after 3 hr by liquid scintillation counting (reference value: 31.3 +/- 1.6%)", "format": "functional", "design": "scale not given: the % may be the effect or the level left"}, "[9]": {"tested_on": "Hordeum vulgare", "assay": "Inhibition of fatty acid synthesis in Hordeum vulgare (barley) using [14C]acetate assessed as [14C]-labeled 22C fatty acid level at 100 uM after 3 hr by liquid scintillation counting (reference value: 8.3 +/- 0.9%)", "format": "functional", "design": "scale not given: the % may be the effect or the level left"}, "[10]": {"tested_on": "Cucumis sativus", "assay": "Inhibition of fatty acid synthesis in Cucumis sativus (cucumber) using [14C]malonate assessed as [14C]-labeled 20C fatty acid level at 100 uM after 3 hr by liquid scintillation counting (reference value: 11.5 +/- 3%)", "format": "functional", "design": "scale not given: the % may be the effect or the level left"}, "[11]": {"tested_on": "Cucumis sativus", "assay": "Inhibition of fatty acid synthesis in Cucumis sativus (cucumber) using [14C]acetate assessed as [14C]-labeled 20C fatty acid level at 100 uM after 3 hr by liquid scintillation counting (reference value: 9 +/- 0.9%)", "format": "functional", "design": "scale not given: the % may be the effect or the level left"}, "[12]": {"tested_on": "Hordeum vulgare", "assay": "Inhibition of fatty acid synthesis in Hordeum vulgare (barley) using [14C]malonate assessed as [14C]-labeled 20C fatty acid level at 100 uM after 3 hr by liquid scintillation counting (reference value: 14.5 +/- 1.7%)", "format": "functional", "design": "scale not given: the % may be the effect or the level left"}, "[13]": {"tested_on": "Hordeum vulgare", "assay": "Inhibition of fatty acid synthesis in Hordeum vulgare (barley) using [14C]acetate assessed as [14C]-labeled 20C fatty acid level at 100 uM after 3 hr by liquid scintillation counting (reference value: 3.8 +/- 0.6%)", "format": "functional", "design": "scale not given: the % may be the effect or the level left"}, "[14]": {"tested_on": "Cucumis sativus", "assay": "Inhibition of fatty acid synthesis in Cucumis sativus (cucumber) using [14C]malonate assessed as [14C]-labeled 18C fatty acid level at 100 uM after 3 hr by liquid scintillation counting (reference value: 22.5 +/- 2.2%)", "format": "functional", "design": "scale not given: the % may be the effect or the level left"}, "[15]": {"tested_on": "Cucumis sativus", "assay": "Inhibition of fatty acid synthesis in Cucumis sativus (cucumber) using [14C]acetate assessed as [14C]-labeled 18C fatty acid level at 100 uM after 3 hr by liquid scintillation counting (reference value: 26.6 +/- 1.6%)", "format": "functional", "design": "scale not given: the % may be the effect or the level left"}, "[16]": {"tested_on": "Hordeum vulgare", "assay": "Inhibition of fatty acid synthesis in Hordeum vulgare (barley) using [14C]malonate assessed as [14C]-labeled 18C fatty acid level at 100 uM after 3 hr by liquid scintillation counting (reference value: 22.8 +/- 2.7%)", "format": "functional", "design": "scale not given: the % may be the effect or the level left"}, "[17]": {"tested_on": "Hordeum vulgare", "assay": "Inhibition of fatty acid synthesis in Hordeum vulgare (barley) using [14C]acetate assessed as [14C]-labeled 18C fatty acid level at 100 uM after 3 hr by liquid scintillation counting (reference value: 53.7 +/- 0.7%)", "format": "functional", "design": "scale not given: the % may be the effect or the level left"}, "[18]": {"tested_on": "Cucumis sativus", "assay": "Inhibition of fatty acid synthesis in Cucumis sativus (cucumber) using [14C]malonate assessed as [14C]-labeled 16C fatty acid level at 100 uM after 3 hr by liquid scintillation counting (reference value: 8.5 +/- 1.4%)", "format": "functional", "design": "scale not given: the % may be the effect or the level left"}, "[19]": {"tested_on": "Cucumis sativus", "assay": "Inhibition of fatty acid synthesis in Cucumis sativus (cucumber) using [14C]acetate assessed as [14C]-labeled 16C fatty acid level at 100 uM after 3 hr by liquid scintillation counting (reference value: 31.9 +/- 5%)", "format": "functional", "design": "scale not given: the % may be the effect or the level left"}, "[20]": {"tested_on": "Hordeum vulgare", "assay": "Inhibition of fatty acid synthesis in Hordeum vulgare (barley) using [14C]malonate assessed as [14C]-labeled 16C fatty acid level at 100 uM after 3 hr by liquid scintillation counting (reference value: 3.1 +/- 0.6%)", "format": "functional", "design": "scale not given: the % may be the effect or the level left"}, "[21]": {"tested_on": "Hordeum vulgare", "assay": "Inhibition of fatty acid synthesis in Hordeum vulgare (barley) using [14C]acetate assessed as [14C]-labeled 16C fatty acid level at 100 uM after 3 hr by liquid scintillation counting (reference value: 29.2 +/- 2.1%)", "format": "functional", "design": "scale not given: the % may be the effect or the level left"}, "[22]": {"tested_on": "Cucumis sativus", "assay": "Inhibition of fatty acid synthesis in Cucumis sativus (cucumber) assessed as inhibition of [14C]malonate incoporation in total fatty acids at 100 uM measured as total disintegration per g of fresh weight after 3 hr by liquid scintillation counting (reference value: 7.6 +/- 1.6%)", "format": "functional"}, "[23]": {"tested_on": "Cucumis sativus", "assay": "Inhibition of fatty acid synthesis in Cucumis sativus (cucumber) assessed as inhibition of [14C]acetate incoporation in total fatty acids at 100 uM measured as total disintegration per g of fresh weight after 3 hr by liquid scintillation counting (reference value: 12.1 +/- 1.4%)", "format": "functional"}, "[24]": {"tested_on": "Hordeum vulgare", "assay": "Inhibition of fatty acid synthesis in Hordeum vulgare (barley) assessed as inhibition of [14C]malonate incoporation in total fatty acids at 100 uM measured as total disintegration per g of fresh weight after 3 hr by liquid scintillation counting (reference value: 8.8 +/- 2.4%)", "format": "functional"}, "[25]": {"tested_on": "Hordeum vulgare", "assay": "Inhibition of fatty acid synthesis in Hordeum vulgare (barley) assessed as inhibition of [14C]acetate incoporation in total fatty acids at 100 uM measured as total disintegration per g of fresh weight after 3 hr by liquid scintillation counting (reference value: 9.2 +/- 2.4%)", "format": "functional"}, "[26]": {"target": "T1, Acetyl-CoA carboxylase (Zea mays, UniProt Q3V4E6)", "T1 sequence (Q3V4E6 whole entry)": "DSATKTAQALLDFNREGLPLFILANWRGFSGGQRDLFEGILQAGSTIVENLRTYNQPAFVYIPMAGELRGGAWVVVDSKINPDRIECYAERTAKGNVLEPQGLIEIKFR", "assay": "Inhibition of Zea mays (maize) chloroplastic ACCase using acetyl-coA as substrate assessed as inhibition of [14C]NaHCO3 incorporation into malonyl-coA incubated for 10 min prior to substrate addition measured for 20 min by liquid scintillation counting"}, "[27]": {"target": "T1, Acetyl-CoA carboxylase", "assay": "Inhibition of Zea mays (maize) cytosolic ACCase using acetyl-coA as substrate assessed as inhibition of [14C]NaHCO3 incorporation into malonyl-coA incubated for 10 min prior to substrate addition measured for 20 min by liquid scintillation counting"}}, "note": "The source made the active and inactive calls. No cut-off for these calls is given here."}
{"molecule": "Cc1sc(-c2ccc(Cl)cc2)nc1C1C(=O)CC2(CCCCC2)C1=O", "note": "(configuration not stated) [Spiro-decanedione A]", "values": [{"measurement": "inhibition", "setting": "[1]", "result": "Active"}, {"measurement": "Activity", "setting": "[2]", "result": 25.3, "unit": "%"}, {"measurement": "Activity", "setting": "[3]", "result": 16.8, "unit": "%"}, {"measurement": "Activity", "setting": "[4]", "result": 43, "unit": "%"}, {"measurement": "Activity", "setting": "[5]", "result": 2.3, "unit": "%"}, {"measurement": "Activity", "setting": "[6]", "result": 8.2, "unit": "%"}, {"measurement": "Activity", "setting": "[7]", "result": 10, "unit": "%"}, {"measurement": "Activity", "setting": "[8]", "result": 31.2, "unit": "%"}, {"measurement": "Activity", "setting": "[9]", "result": 33.7, "unit": "%"}, {"measurement": "Activity", "setting": "[10]", "result": 18.1, "unit": "%"}, {"measurement": "Activity", "setting": "[11]", "result": 3.4, "unit": "%"}, {"measurement": "Activity", "setting": "[12]", "result": 15.8, "unit": "%"}, {"measurement": "Activity", "setting": "[13]", "result": 24.4, "unit": "%"}, {"measurement": "Activity", "setting": "[14]", "result": 20, "unit": "%"}, {"measurement": "Activity", "setting": "[15]", "result": 43.8, "unit": "%"}, {"measurement": "Activity", "setting": "[16]", "result": 18.6, "unit": "%"}, {"measurement": "Activity", "setting": "[17]", "result": 20.5, "unit": "%"}, {"measurement": "Activity", "setting": "[18]", "result": 8.9, "unit": "%"}, {"measurement": "Activity", "setting": "[19]", "result": 50.5, "unit": "%"}, {"measurement": "Activity", "setting": "[20]", "result": 0.9, "unit": "%"}, {"measurement": "Activity", "setting": "[21]", "result": 4.6, "unit": "%"}, {"measurement": "Activity", "setting": "[22]", "result": 12.7, "unit": "×10⁶ dpm"}, {"measurement": "Activity", "setting": "[23]", "result": 14.3, "unit": "×10⁶ dpm"}, {"measurement": "Activity", "setting": "[24]", "result": 9.9, "unit": "×10⁶ dpm"}, {"measurement": "Activity", "setting": "[25]", "result": 3.6, "unit": "×10⁶ dpm"}, {"measurement": "IC50", "setting": "[26]", "result": 8, "unit": "nM"}, {"measurement": "IC50", "setting": "[27]", "result": 20, "unit": "nM"}]}
